Laboratory results taken from ChEMBL document CHEMBL1158233, “Cytotoxic Cembranoids from the Soft Corals Sinularia gibberosa and Sarcophyton trocheliophorum” (1996).
Converted amounts (≈) assume the structure as drawn.

What was measured:
Format in all cases: functional
A549 = experiment: Cytotoxicity against human A549 cells after 6 days by MTT assay; details: A549, 144 h, read-out: ED50 (the source's name)
HT-29 = experiment: Cytotoxicity against human HT29 cells after 6 days by MTT assay; details: HT-29, 144 h, read-out: ED50 (the source's name)
KB = experiment: Cytotoxicity against human KB cells after 3 days by MTT assay; details: 72 h, read-out: ED50 (the source's name)
P388 = experiment: Cytotoxicity against mouse P388 cells after 3 days by MTT assay; details: P388, 72 h, read-out: ED50 (the source's name)

| Compound | EC50 (A549) [µg/mL] | EC50 (HT-29) [µg/mL] | EC50 (KB) [µg/mL] | EC50 (P388) [µg/mL] |
| --- | --- | --- | --- | --- |
| CC1=C2CC/C(C)=C/CC[C@]3(C)O[C@H]3CC/C(C)=C/[C@@H]2OC1=O [SARCOPHINE] | 10.4 (≈ 32.8 µM) | 10.5 (≈ 33.1 µM) | > 50 | 2.42 (≈ 7.65 µM) |
| COC(C)(C)/C1=C/[C@H]2O[C@]2(C)CC/C=C(\C)CC[C@H]2O[C@]2(C)CC1 | > 50 | 0.36 (≈ 1.08 µM) | > 50 | 3.26 (≈ 9.75 µM) |
| C/C1=C\C=C(\C(C)(C)O)C(O)C/C(C)=C/CC/C(C)=C/CC1 (stereo not drawn) | 20.2 (≈ 66.2 µM) | 0.29 (≈ 0.952 µM) | 14.9 (≈ 49 µM) | 1.54 (≈ 5.06 µM) |
| CC1=C2CC/C(C)=C/CC[C@]3(C)O[C@H]3CC/C(C)=C/[C@@H]2OC1 | 15.7 (≈ 52 µM) | 16.1 (≈ 53.1 µM) | > 50 | 3.87 (≈ 12.8 µM) |
| C/C1=C\C=C(\C(C)(C)O)CC[C@@]2(C)O[C@@H]2CC/C(C)=C/CC1 | 1.03 (≈ 3.38 µM) | 0.64 (≈ 2.1 µM) | 0.63 (≈ 2.07 µM) | 0.01 (≈ 0.0328 µM) |
| C/C1=C\CCC(C)(O)C2C=C(C(C)(C)O)C(C/C(C)=C/CC1)O2 (stereo not drawn) | 1.7 (≈ 5.3 µM) | 1.81 (≈ 5.65 µM) | 17.1 (≈ 53.4 µM) | 0.23 (≈ 0.718 µM) |
| CC1=C2CC/C(C)=C/CC[C@@](C)(O)[C@@H](O)CC/C(C)=C/[C@@H]2OC1=O | 24.7 (≈ 73.7 µM) | 22.9 (≈ 68.4 µM) | > 50 | 3.27 (≈ 9.78 µM) |
